This is an account of results in patent US6783558B2, “Hair coloring method and composition” (Kao Corporation, priority 2001, dated 2004).

Data set [1] is described as follows: Measurement of pKa value by spectrophotometric titration. In kind it is physicochemical. The following applies: DMF/water (1/1) solution, 2×10^−5 mol/l, titrated from pH 2 with NaOH, visible ultra-violet absorption spectrum, read-out: pKa value determined. On the procedure: The dissociative dye represents the dye that can release a proton and be anionic above a certain pH value. The pKa value can be determined by the following method: The sample is dissolved in a solution of a DMF/water (1/1) volume ratio to a final concentration of 2×10^−5 mol/l. After the resulting solution is adjusted to pH 2, using 1.0 mol/l hydrochloric acid, the solution is titrated with aqueous 1.0 mol/l sodium hydroxide solution. Recording the change of the visible ultra-violet absorption spectrum, the inflection point is determined by regression analysis.
pKa values of the dyestuffs DS-3 to DS-6, DS-7 and DS10 were determined by the following method: The dye was dissolved in a solution of a DMF/water (1/1) volume ratio to a final concentration of 2×10^−5 mol/l. After the resulting solution was adjusted to pH 2, using 1.0 mol/l hydrochloric acid, the solution was titrated with aqueous 1.0 mol/l sodium hydroxide solution. Recording the change of the visible ultra-violet absorption spectrum, the inflection point was determined by regression analysis.

The nature of data set [2]: Dyeing of undamaged white goat tress with general composition, Examples 7-15. The following applies: 0.02 g dyestuff in 10 g general composition (Table 6), 20 mins at 50° C. On the procedure: the following general composition was prepared for each of pyrazolotriazole direct dyes DS-3, DS-4, DS-6, DS-7 and DS-12 to DS-16. Each composition was applied to one undamaged white goat tress for 20 mins at 50° C. (1 g of tress was covered by 1.5 to 2 g of composition). After 20 mins the tresses were rinsed, shampoo washed and then dried before the colour was assessed.

The nature of data set [3]: Compatibility with hydrogen peroxide, Examples 18-21. More on the design: species or system human. The note with it: for Delta a (change in red colour): 0.02 g dyestuff in 10 g, undamaged human blond hair, 20 mins at 50° C; for stability to alkaline peroxide: composition with ammonia and hydrogen peroxide. On the procedure: The following general compositions in Table 10 were prepared for each of pyrazolotriazole direct dyes DS-4 and DS-6.
Each composition was applied to one undamaged human blond hair for 20 mins at 50° C. After 20 mins the tresses were rinsed, shampoo washed and then dried before the colour was assessed.

For orientation: pKa means the negative logarithm of the acid dissociation constant.

Consider `CC1=Nn2nc(C)nc2/C1=N\c1cc(Cl)c(O)c(Cl)c1` [DS-3], for which, in data set [1], the pKa was 3.78. In addition, in data set [2], the “Colouring Result” value is on record as “Bright, intense magenta”; the “Delta E” value came to 81; the L stood at 30; the a turned out to be 54. Also, the b in data set [2] is reported as −12.
For `Cc1nc2n(n1)N=C(C(C)(C)C)/C2=N/c1cc(Cl)c(O)c(Cl)c1` [DS-4], the pKa in data set [1] was found to be 3.88. Besides, in data set [2], the “Colouring Result” value is given as “Bright, intense magenta”; the “Delta E” value worked out at 75; the L is 38; the a is on record as 60. Also, in data set [2], the b is 16. Moreover, in data set [3] (H2O2 3 wt %), the “Delta a (change in red colour)” value amounted to 39. Also, the “Delta a (change in red colour)” value in data set [3] (H2O2 None) was found to be 27. Moreover, the “stability to alkaline peroxide” value in data set [3] is reported as “stable to alkaline peroxide”.
`CC1=Nn2c(C)nnc2/C1=N\c1cc(Cl)c(O)c(Cl)c1` [DS-5]: in data set [1], the pKa is 4.34.
With `Cc1nnc2n1N=C(C(C)(C)C)/C2=N/c1cc(Cl)c(O)c(Cl)c1` [DS-6], in data set [2], the “Colouring Result” value is “Bright pink”, the “Delta E” value was found to be 55, the L is reported as 57 and the a is given as 42. Moreover, in data set [2], the b is given as −7. For the same compound, the “Delta a (change in red colour)” value in data set [3] (H2O2 3 wt %) is 30. Further, the “Delta a (change in red colour)” value in data set [3] (H2O2 None) came out at 15. Also, the “stability to alkaline peroxide” value in data set [3] is “stable to alkaline peroxide”.
As to `CC(C)c1nc2n(n1)N=C(C(C)(C)C)/C2=N/c1cc(Cl)c(O)c(Cl)c1` [DS-7], the pKa in data set [1] is 3.92. In data set [2], the “Colouring Result” value is reported as “Pink”, the “Delta E” value was 60, the L came out at 50 and the a is 50. The b in data set [2] was −8.
`CC1=Nn2nc(C(C)CN)nc2/C1=N\c1cc(Cl)c(O)c(Cl)c1` (stereo not shown) [DS-10]: the pKa in data set [1] came out at 3.38.
With `CSc1nnc2n1N=C(c1ccccc1)/C2=N/c1cc(Cl)c(O)c(Cl)c1` [DS-12], in data set [2], the “Colouring Result” value is given as “Violet”, the “Delta E” value was found to be 59, the L was 48 and the a is reported as 29. Further, the b in data set [2] was −26.
In the case of `CC(C)c1nc2n(n1)N=C(c1ccccc1Cl)/C2=N/c1cc(Cl)c(O)c(Cl)c1` [DS-15], in data set [2], the “Colouring Result” value is recorded as “Violet”, the “Delta E” value is listed as 55, the L was found to be 51 and the a is 33. In data set [2], this compound had a b of −17.
As for `CC(C)(C)C1=Nn2nc(-c3ccc(NS(C)(=O)=O)cc3)nc2/C1=N\c1cc(Cl)c(O)c(Cl)c1` [DS-16], in data set [2], the “Colouring Result” value is given as “Bright pink”, the “Delta E” value came out at 52, the L was 55 and the a is 41. The b in data set [2] is on record as −3.
